We go through 2 sequences from US7238669B2, “Phage-display peptides as novel antimicrobial agents against Haemophilus influenzae” (priority 2002, dated 2007).

The subject of one test is Int-1 strain of NTHi. Kind of test: Inhibition of Int-1 growth by phage-displayed peptides (overnight in sBHI broth, OD630 and colony counts). The conditions noted are these: for MIC concentration resulting in no bacterial growth: FIGS. 3A and 3B. It counts as cell-based, Haemophilus influenzae. The procedure: The next day, the optical densities of the bacterial cultures were evaluated by direct measurement of the optical densities at OD630 nm.
Int-1, a non-typeable clinical isolate, was isolated in 1991 from the blood of a child with clinical symptoms of meningitis. It is virulent in rat models and is able to survive in human serum. Kw20, a non-typeable strain, was isolated in 1954. R3001, a non-typeable clinical isolate, was isolated from a bronchial lavage of a cystic fibrosis patient. R2140, is a non-typeable clinical isolate. R538 is a Haemophilus influenzae type b ATCC strain No. 9795. E1a is a type b Haemophilus influenzae clinical isolate.

Another test concerns NTHi. Kind of test: Microscopic examination of cell membrane integrity. Type of test: cell-based, Haemophilus influenzae. The conditions noted are these: microscopic results.
Test [1] concerns Enterococcus faecialis. Kind of test: Growth of other bacterial species in presence of hi3/17. It counts as cell-based. The conditions noted are these: FIG. 4. The method, then: (§1) (Salmonella), Enterococcus faecialis (E. faec.), Staphylococcus aureus (S. aur.) and Pseudomonas aeruginosa (P. aeru.). One hundred and fifty μl of the test bacteria were incubated in the presence of either hi3/17, f88 unselected phage display library in sBHI broth (supplemented with 10 μg/mL heme and NAD+) or control sBHI at 37° C. The next day, the optical densities of the bacterial cultures were evaluated by direct measurement of the optical densities at OD630 nm. Dilutions of the bacteria were incubated on sBHI agar plates to determine the total number of colonies per well.

In the next test the test system is Staphylococcus aureus. The test is described as above. Type of test: cell-based. The conditions noted are these: FIG. 4. The method, then: as §1
Test [2] concerns Proteus. The description is as above. The conditions noted are these: FIG. 4. Type of test: cell-based, Proteus mirabilis. The procedure:
as §1

Test [3] concerns Proteus. Kind of test: Binding to bacteria via ELISA. Set-up: species or system Proteus mirabilis. (In an ELISA, binding on a coated surface is turned into a signal by an enzyme label.)
Test [4] has as its system Enterococcus faecialis. Kind of test: Binding to bacteria via ELISA.

Consider KQRTSIRATEGCLPS [hi3/17], for which, in the test on Int-1 strain of NTHi, the MIC is listed as approximately 1e10 virions per μl, the “bactericidal activity against Int-1” value was “bactericidal”, the “greater antimicrobial activity towards Int-1 compared with Group 2 phage displayed peptides” value is reported as “over 5 fold” and the “MIC concentration resulting in no bacterial growth” value is given as 3.64×10^9 virions. Also, in the test on NTHi, the “effect on cell membrane integrity of NTHi” value is recorded as “altered the cell membrane integrity”. For the same sequence, the “antimicrobial activity against Enterococcus faecialis” value in the test on Enterococcus faecialis [1] was “no activity”. In the test with Staphylococcus aureus, the “inhibition of growth of Staphylococcus aureus” value is on record as “completely inhibit the growth”. In addition, the “antimicrobial activity against Proteus” value in the test with Proteus [2] is reported as “no activity”. Further, the “binding via ELISA” value with Proteus [3] is “binding being detectable”. Further, in the test on Enterococcus faecialis [4], the “binding via ELISA” value was “binding being detectable”.

Turning to VVFLSSRNSAVFTDF [fUSE5/2], in the test on Int-1 strain of NTHi, the “bactericidal activity against Int-1” value is on record as “bactericidal” and the “MIC concentration resulting in no bacterial growth” value is 2.4×10^10 virions. In addition, the “effect on cell membrane integrity of NTHi” value in the test on NTHi was “altered the cell membrane integrity”.
